According to patent US11337970B2, “Inhibitors of indoleamine 2,3-dioxygenase and methods of their use” (BRISTOL-MYERS SQUIBB COMPANY, priority 2016, dated 2022):

Target: T1, indoleamine 2,3-dioxygenase (IDO) (Homo sapiens, UniProt P14902)
T1 construct: host or cells: HeLa cells stimulated with IFNγ (25 ng/mL)
Assay: HeLa cell-based indoleamine 2,3-dioxygenase (IDO) assay (kynurenine production)
Details: HeLa cells, IFNγ 25 ng/mL, 48 hour incubation, absorbance at 480 nm
Protocol: Assessment of inhibitor activity in HeLa cell-based indoleamine 2,3-dioxygenase (IDO) assay:
HeLa (ATCC® CCL-2) cells were obtained from the ATCC® and cultured in Dulbecco's Modified Eagle Medium supplemented with 4.5 g/L glucose, […] (#10-013-CV, Corning), 2 mM L-alanyl-L-glutamine dipeptide (#35050-061, Gibco), 100U/mL penicillin, 100 μg/mL streptomycin (#SV30010, HyClone) and 10% fetal bovine serum (#SH30071.03 HyClone). Cells were maintained in a humidified incubator at 37° C. in 5% CO2.
IDO activity was assessed as a function of kynurenine production as follows: HeLa cells were seeded in a 96-well culture plate at a density of 5,000 cells/well and allowed to equilibrate overnight. After 24 hours, the media was aspirated and replaced with media containing IFNγ (#285-IF/CF, R&D Systems) at a final concentration of 25 ng/mL. A serial dilution of each test compound was added to the cells in a total volume of 200 μL of culture medium. After a further 48 hour incubation, 170 μL of supernatant was transferred from each well to a fresh 96-well plate. 12.1 μL of 6.1N trichloroacetic acid (#T0699, Sigma-Aldrich) was added to each well and mixed, followed by incubation at 65° C. for 20 minutes to hydrolyze N-formylkynurenine, the product of indoleamine 2,3-dioxygenase, to kynurenine. The reaction mixture was then centrifuged for 10 mins at 500×g to sediment the precipitate. 100 μL of the supernatant was transferred from each well to afresh 96-well plate. 100 μl of 2% (w/v) p-dimethylaminobenzaldehyde (#15647-7, Sigma-Aldrich) in acetic acid (#A6283, Sigma-Aldrich) was added to each well mixed and incubated at room temperature for 20 mins. Kynurenine concentrations were determined by measuring absorbance at 480 nm and calibrating against an L-kynurenine (#K8625, Sigma-Aldrich) standard curve using a SPECTRAMAX® M2e microplate reader (Molecular Devices). The percentage activity at each inhibitor concentration was determined and IC50 values assessed using nonlinear regression.

T1 sequence (P14902 whole entry): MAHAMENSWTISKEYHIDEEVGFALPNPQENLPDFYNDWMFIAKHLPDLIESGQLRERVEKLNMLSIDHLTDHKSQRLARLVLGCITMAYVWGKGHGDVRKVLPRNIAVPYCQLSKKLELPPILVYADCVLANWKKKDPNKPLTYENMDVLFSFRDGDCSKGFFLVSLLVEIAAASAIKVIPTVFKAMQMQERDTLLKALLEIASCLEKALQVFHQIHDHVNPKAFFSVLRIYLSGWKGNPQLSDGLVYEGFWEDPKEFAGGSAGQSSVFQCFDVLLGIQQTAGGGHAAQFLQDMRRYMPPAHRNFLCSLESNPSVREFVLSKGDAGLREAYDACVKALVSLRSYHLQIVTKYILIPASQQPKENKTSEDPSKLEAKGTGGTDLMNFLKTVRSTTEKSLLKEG

Row | Structure (SMILES) | IC50 [nM]
1 | C[C@H]([C@H]1CC[C@@H](c2ccnc3ccc(F)cc32)CC1)n1cnc2ccccc2c1=O [Example 28, 3-((R)-1-((cis)-4-(6-fluoroquinolin-4-yl)cyclohexyl)ethyl)quinazolin-4(3H)-one] | 834
2 | C[C@@H](c1nc2ccc(Cl)cc2c(=O)[nH]1)[C@H]1CC[C@@H](c2ccnc3ccc(F)cc32)CC1 [Example 29, 6-chloro-2-((R)-1-((cis)-4-(6-fluoroquinolin-4-yl)cyclohexyl)ethyl)quinazolin-4(3H)-one] | 143
3 | Cc1ccc2nc([C@H](C)[C@H]3CC[C@@H](c4ccnc5ccc(F)cc54)CC3)cn2n1 [Example 30, 6-fluoro-4-((cis)-4-((R)-1-(6-methylimidazo[1,2-b]pyridazin-2-yl)ethyl)cyclohexyl)quinoline] | 96.6
4 | C[C@@H](c1cn2ncccc2n1)[C@H]1CC[C@@H](c2ccnc3ccc(F)cc32)CC1 [Example 31, 6-fluoro-4-((cis)-4-((R)-1-(imidazo[1,2-b]pyridazin-2-yl)ethyl)cyclohexyl)quinoline] | 607
5 | CC(c1nc2ccc(Cl)cc2[nH]1)C1CCC(c2ccnc3ncccc23)CC1 (stereo not drawn) [Example 35-1] | 1000
6 | C[C@@H](c1nc2c(F)c(F)ccc2[nH]1)[C@H]1CC[C@@H](c2ccnc3ccc(F)cc32)CC1 [Example 41, 4-((1S,4s)-4-((R)-1-(4,5-difluoro-1H-benzo[d]imidazol-2-yl)ethyl)cyclohexyl)-6-fluoroquinoline] | 3.4
7 | C[C@@H](c1nc2c(F)c(F)c(F)c(F)c2[nH]1)[C@H]1CC[C@@H](c2ccnc3ccc(F)cc32)CC1 [Example 43, 6-fluoro-4-((1S,4s)-4-((R)-1-(4,5,6,7-tetrafluoro-1H-benzo[d]imidazol-2-yl)ethyl)cyclohexyl) quinoline] | 3.5
8 | C[C@@H](c1nc2cc(Cl)c(Cl)cc2[nH]1)[C@H]1CC[C@@H](c2ccnc3ccc(F)cc32)CC1 [Example 44, 4-((1S,4s)-4-((R)-1-(5,6-dichloro-1H-benzo[d]imidazol-2-yl)ethyl)cyclohexyl)-6-fluoroquinoline] | 5.5
9 | C[C@@H](c1nc2cc(C(F)(F)F)cc(C(F)(F)F)c2[nH]1)[C@H]1CC[C@@H](c2ccnc3ccc(F)cc32)CC1 [Example 47, 4-((1S,4s)-4-((R)-1-(5,7-bis(trifluoromethyl)-1H-benzo[d]imidazol-2-yl)ethyl)cyclohexyl)-6-fluoroquinolme] | 45.6

Next, values leading:

Row | IC50 [nM] | Structure (SMILES)
10 | 2.7 | C[C@@H](c1nc2cc(F)c(F)cc2[nH]1)[C@H]1CC[C@@H](c2ccnc3ccc(F)cc32)CC1 [Example 40]
11 | 3.7 | C[C@@H](c1nc2cc(Cl)c(F)cc2[nH]1)[C@H]1CC[C@@H](c2ccnc3ccc(F)cc32)CC1 [Example 42]
12 | 3.1 | C[C@@H](c1nc2cc(C(F)(F)F)ccc2[nH]1)[C@H]1CC[C@@H](c2ccnc3ccc(F)cc32)CC1 [Example 45, 6-fluoro-4-((1S,4s)-4-((R)-1-(5-(trifluoromethyl)-1H-benzo[d]imidazol-2-yl)ethyl)cyclohexyl) quinoline]
13 | 12.2 | C[C@@H](c1nc2cc(C(F)(F)F)cc(Cl)c2[nH]1)[C@H]1CC[C@@H](c2ccnc3ccc(F)cc32)CC1 [Example 46, 4-((1S,4s)-4-((R)-1-(7-chloro-5-(trifluoromethyl)-1H-benzo[d]imidazol-2-yl)ethyl)cyclohexyl)-6-fluoroquinoline]
14 | 10.7 | C[C@@H](c1nc2cc(OC(F)(F)F)ccc2[nH]1)[C@H]1CC[C@@H](c2ccnc3ccc(F)cc32)CC1 [Example 48, 6-fluoro-4-((1S,4s)-4-((R)-1-(5-(trifluoromethoxy)-1H-benzo[d]imidazol-2-yl)ethyl)cyclohexyl) quinoline]
15 | 13.4 | C[C@@H](c1nc2cc(C#N)ccc2[nH]1)[C@H]1CC[C@@H](c2ccnc3ccc(F)cc32)CC1 [Example 49, 2-((R)-1-((1s,4S)-4-(6-fluoroquinolin-4-yl)cyclohexyl)ethyl)-1H-benzo[d]imidazole-5-carbonitrile]
